Test [1] concerns KS1767 and DU145 human tumor xenografts and EF43-FGF4 mouse mammary carcinoma. Briefly: In vivo homing of targeted or control phage in mice bearing different tumor types. As to conditions: systemic administration; KS1767, DU145 and EF43-FGF4 models. Here is the method:
The tumor targeting attributes of CRKL-binding phage in tumor-bearing mice was evaluated next. First, phage constructs displaying either the selected CRKL-binding peptide or a panel of control (mutant or scrambled) peptides were designed and produced. Phage clones were tested in human tumor xenografts (Kaposi sarcoma KS1767 cells and prostate carcinoma DU145 cells) and an isogenic mouse tumor model (EF43-FGF4 mammary carcinoma).
In vivo targeting experiments with phage were performed as described (Hajitou et al., 2006; Arap et al., 1998; Arap et al., 2004; Kolonin et al., 2004; Marchio et al., 2004). Animals used in experiments were: Male nude mice bearing human DU145 xenografts or female nude mice with human Kaposi sarcoma KS1767-derived xenografts subcutaneously and immunocompetent Balb/c female mice bearing EF43-FGF4-derived breast tumors orthotopically in the mammary fat pad. Briefly, mice bearing tumors (˜8 mm) were anesthetized and injected intravenously via tail vein with 5×10^10 T.U. per mouse of wild-type […] (SEQ ID NO:1)-phage, or negative controls: fd-tet phage (insertless) and scrambled […] (SEQ ID NO:26)-phage, […] (SEQ ID NO:27)-phage, […] (SEQ ID NO:29)-phage, […] (SEQ ID NO:30)-phage or mutants […] (SEQ ID NO:25)-phage and […] (SEQ ID NO:28)-phage. Cohorts of two mice with size-matched tumors received each set of phage clones. After 24 hours, tumors were dissected from each mouse and phage recovered by bacterial infection and normalized by weight of tissue. The experiments were repeated twice for each tumor model. […] The fd phage served a negative control and the RGD-4C (Hajitou et al., 2006; Arap et al., 1998) served as a positive control. Only minimal background apoptosis (<1% of the total cells) were detected by TUNEL staining (Promega) on paraffin-embedded tumor tissue sections.

The target in test [2] is CRKL binding to β1 integrin (Homo sapiens, UniProt P46109). As to the kind of experiment: Protein-protein interaction between CRKL and β1 integrin, inhibition assay. The protocol:
Phage binding assays on purified proteins were carried out as described (Giordano et al. 2001). Recombinant proteins were coated on microtiter wells as previous described (Cardo-Vila et al., 2003; Smith and Scott, 1993). Briefly, proteins were immobilized on microtiter wells overnight at 4° C. 50 μl of 1 μg/ml in PBS. Wells were washed twice with PBS, blocked with PBS containing 3% BSA for 2 hours at room temperature, and incubated with 10^9 T.U. wild-type tumor-homing phage ([…]; SEQ ID NO:1), scrambled phage ([…] (SEQ ID NO:26), […] (SEQ ID NO:27), […] (SEQ ID NO:29), […] (SEQ ID NO:30)), mutant phage ([…] (SEQ ID NO:25), […] (SEQ ID NO:28)), PSI-derived cyclic phage (CNSTFLQEGMPTSAC; SEQ ID NO:23) or fd-tet phage in 50 μl of PBS containing 1.5% BSA. After 1 hour at room temperature, wells were washed ten times with PBS and phage were recovered by bacterial infection. ELISA with polyclonal anti-CKRL confirmed the presence and concentration of the CKRL recombinant proteins on the wells. […] After 3 hours, binding of CKRL to integrins was detected by using an anti-CKRL antibody followed by an HRP-conjugated anti-rabbit IgG. […]

Test [3] concerns CRKL secretion. Briefly: CRKL secretion inhibition study (immunoprecipitation from serum-free medium). The class given is cell-based. To be noted: cells incubated with compound in serum-free medium for 9 hours. Here is the method: Cells were synchronized for 24-48 hours in RPMI serum-free medium followed by a spin and filtration through a 0.22 μm filter, and pre-absorbed to control antibodies. An equal volume of PBS was added to the recovered supernatant prior to immunoprecipitating with the appropriate antibodies. Brefeldin A, glybenclamide, and thapsigargin were used for secretion inhibition studies. Cells were incubated with the compounds in serum-free medium for 9 hours prior to immunoprecipitation with the appropriate antibodies. No detergents were used in the immunoprecipitation studies. By using the methodology described above, CRKL is found in a free soluble state and not in vesicles.

Test [4] deals with human prostate cancer xenografts (DU145-derived). Briefly: Therapy in tumor-bearing mice (tumor volume). The class given is in vivo, nude mice. To be noted: equimolar amounts, systemically administered, vs untreated or vehicle. The text has this: Finally, a pilot pre-clinical trial that included four cohorts of size-matched tumor-bearing mice was designed and conducted (FIG. 11). Animals received the following reagents: (i) the synthetic PSI domain-mimic peptide, (ii) the synthetic PSI domain-mimic peptide linked to a pro-apoptotic peptidomimetic (Arap et al., 2004; Ellerby et al., 1999; Kolonin et al., 2004; Zurita et al., 2004) in order to induce targeted apoptosis upon receptor-mediated internalization, (iii) the synthetic pro-apoptotic peptidomimetic alone, or (iv) vehicle alone. All peptides or peptidomimetics were administered at equimolar concentrations.
DU145 tumor-bearing mice were size-matched and divided into individual cohorts (n=4 mice per group). The tumor-homing peptide […] (SEQ ID NO:1) was synthesized fused with the proapoptotic motif D(KLAKLAK)2. Unconjugated peptide […] (SEQ ID NO:1) or D(KLAKLAK)2 served as controls. The synthetic peptides were systemically administered and tumor volumes measured as described (Arap et al., 1998; Arap et al., 2004).

The subject of test [5] is DU145 cells. As to the kind of experiment: Peptide internalization assay (WST-1 cell viability, annexin-V staining). The class given is cell-based, human. Here is the method: The internalization capability of the tumor-homing peptide fused through a glycinylglycine bridge to a pro-apoptotic sequence was tested as described Arap et al., 2004; Ellerby et al., 1999; Kolonin et al., 2004; Zurita et al., 2004). The conjugated tumor-homing peptide, […] (SEQ ID NO:67)-D(KLAKLAK)2 or the untargeted control peptide D(KLAKLAK)2 were synthesized and increasing equimolar peptide concentrations were added to the DU145 cells. Cell viability was assayed by the WST-1 reagent (Roche) and annexin-V staining for apoptosis (Zurita et al., 2004; Cardo-Vila et al., 2003). For tumor-homing phage localization studies, cells were incubated with 10^9 T.U. tumor-homing ([…]; SEQ ID NO:1) or a negative control (fd-tet) phage for 6 and 24 hours. Wells were washed with 20 mM glycine to remove non-specific cell surface bound phage and then fixed with 4% paraformaldehyde. The non-permeabilized cells were incubated with rabbit anti-fd bacteriophage antibody (Sigma) for 2 hours at room temperature followed by 1 hour incubation with Cy3-labeled anti-rabbit IgG antibody (Jackson ImmunoResearch). Cells were again fixed with 4% paraformaldehyde and mounted in the presence of DAPI (Vector Laboratories) and images were acquired with an Olympus fluorescence microscope.

Test [6] deals with T1, rCRKL-SH3 (N) domain (Homo sapiens, UniProt P46109).
T1 construct: cDNAs corresponding to each of the SH domains were PCR-amplified and cloned into the Sac I and Xho I restriction sites; His-tag; made in house; host or cells: E. coli BL21
Briefly: Peptide binding assay with recombinant His-tag proteins (ELISA). As to conditions: peptide coated on microtiter plates. Here is the method:
(§1) Synthetic tumor-homing peptide ([…]; SEQ ID NO:1) or PSI-derived peptide (NSTFLQEGMPTSA; SEQ ID NO:23) were coated on microtiter plates followed by blocking, and washing. The following recombinant His-tag proteins were added to the coated plates: rCRKL, rCRKL-SH2 domain, rCRKL-SH3 (N) domain, and rCRKL-SH3 (C) domain. An unrelated control protein (α2-Heremans-Schmid glycoprotein; AHSG) served as a negative control. The mixtures were incubated, washed, and labeled with the appropriate antibodies. Secondary antibodies conjugated to horse-radish peroxidase (HRP) were added followed by adding TMB substrate (Calbiochem), and analyzed by an automated ELISA reader (Bio-Tek). To determine the inhibitory activity of the tumor-homing peptide, the PSI-derived peptide, or the phage clone displaying the corresponding tumor-homing peptide were incubated with the rCRKL-SH3 (C) domain. Unrelated cyclic peptide sequences and insertless phage (fd-tet) served as negative controls. The admixtures were incubated and added to wells coated with the tumor-homing peptide. After incubation, the wells were washed, labeled with the appropriate antibodies, and processed as above.

The target of test [7] is T2, rCRKL (Homo sapiens, UniProt P46109).
T2 construct: The open reading frame of full-length CRKL cDNA (Invitrogen) was PCR-amplified and cloned in a pET28a (Novagen) expression vector; His-tag; made in house; host or cells: E. coli BL21
Described as above. As to conditions: peptide coated on microtiter plates. Here is the method:
as §1

The target in test [8] is T3, rCRKL-SH3 (C) domain (Homo sapiens, UniProt P46109).
T3 construct: cDNAs corresponding to each of the SH domains were PCR-amplified and cloned into the Sac I and Xho I restriction sites; His-tag; made in house; host or cells: E. coli BL21
The test is described as above. As to conditions: peptide coated on microtiter plates. Here is the method: as §1

Test [9] addresses T3, rCRKL-SH3 (C) domain. Briefly: Inhibition of rCRKL-SH3 (C) domain binding to coated tumor-homing peptide. As to conditions: inhibitor pre-incubated with rCRKL-SH3 (C). The protocol:
as §1

Ends that are not written are not given here.

Chain of CRKL binding to β1 integrin (P46109 whole entry): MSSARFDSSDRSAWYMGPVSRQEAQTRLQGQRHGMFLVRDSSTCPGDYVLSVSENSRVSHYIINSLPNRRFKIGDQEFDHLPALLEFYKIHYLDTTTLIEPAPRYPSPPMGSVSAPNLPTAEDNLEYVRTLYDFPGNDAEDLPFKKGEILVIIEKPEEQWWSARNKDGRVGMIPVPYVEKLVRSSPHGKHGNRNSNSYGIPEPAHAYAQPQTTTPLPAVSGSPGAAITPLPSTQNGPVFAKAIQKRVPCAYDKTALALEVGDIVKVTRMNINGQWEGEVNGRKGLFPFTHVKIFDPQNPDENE
T3 sequence (P46109 235-296 limits assumed): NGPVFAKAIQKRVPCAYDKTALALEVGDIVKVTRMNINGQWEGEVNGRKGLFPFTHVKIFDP
T2 sequence (P46109 whole entry): as the sequence (P46109 whole entry) above
T1 sequence (P46109 123-183 limits assumed): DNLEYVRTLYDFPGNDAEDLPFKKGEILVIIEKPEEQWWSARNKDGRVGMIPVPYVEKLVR

As for YRFCTSPFHEWHLENTDMCA, the “tumor homing / tumor targeting” value in test [1] is listed as “no tumor targeting”.

In the case of “gst-PSI: recombinant gst fusion protein of the entire PSI domain of β1 integrin (CLKANAKSCGECIQAGPNCGWCTNSTFLQEGMPTSARCDDLEALKKKGC; cysteine pairing not given here; also: N-terminal GST fusion, not written)”, in test [2] (up to 800 ηm), the “inhibition of CRKL binding to β1 integrin” value is recorded as “concentration-dependent inhibition”. Besides, in test [2] (wells coated with α5β1 integrin), the IC50 amounted to 20 nM. With YRCETDSPHEFHLWNTMCAF, the “tumor homing / tumor targeting” value in test [1] is reported as “no tumor targeting activity”. Take `COc1ccc(Cl)cc1C(=O)NCCc1ccc(S(=O)(=O)NC(=O)NC2CCCCC2)cc1` [glybenclamide]: in [3], the “CRKL secretion / release” value is on record as “does prevent”. The same measure, in the same setting: in the case of `C[C@H]1CCC/C=C/[C@@H]2C[C@H](O)C[C@H]2[C@H](O)/C=C/C(=O)O1` [brefeldin A] it was “do not appear to inhibit”. Take YRCTLNSAFFWEDMTHECHA: the “tumor homing / tumor targeting” value in test [1] is reported as “no tumor targeting”. Consider “YRCTLNSPFFWEDMTHECHAGG (SEQ ID NO:67)-D(KLAKLAK)2”, for which the “tumor growth / tumor volume” value is “Markedly reduced tumor growth” in test [4] and “significantly inhibited” in [4] (listed as targeted pro-apoptotic peptidomimetic). Moreover, the “programmed cell death (annexin-V staining)” value in test [5] (DU145 cells) is “Programmed cell death was confirmed”. The internalization entry in test [5] (DU145 cells, measured by cell viability and annexin-V) is “enables internalization”. Also, the “cell killing (cell viability, WST-1)” value in test [5] (increasing equimolar concentrations, control D(KLAKLAK)2) is “Targeted cell killing relative to controls”. YRCETDSPHEFHLWNTFCAM: the “tumor homing / tumor targeting” value in test [1] is given as “no tumor targeting activity”. On the same count and under the same terms, in the case of YRECTDSPHEFHLWNTMCAF it was “no tumor targeting”. Regarding D(KLAKLAK)2 [reference compound], the “tumor growth / tumor volume” value in test [4] is on record as “no differences in tumor volume”. In the case of YRCTLNSPAAAEDMTHECHA, the “tumor homing / tumor targeting” value in test [1] is recorded as “no tumor targeting activity”. For the compound “NSTFLQEGMPTSA (listed as Homo sapiens) [synthetic peptide derived from the native PSI domain of β1 integrin, residues 50 to 62]”, the “binding to rCRKL-SH3 (N) domain” value in test [6] is listed as “bound”. In test [7], the “binding to rCRKL” value is reported as “bound”. For the same compound, the “binding to rCRKL-SH3 (C) domain” value in [8] was “bound”. In addition, the “inhibition of binding of the tumor-homing peptide to rCRKL-SH3 (C) domain” value in test [9] is reported as “inhibited”.

For `C/C=C(/C)C(=O)O[C@H]1C(C)=C2[C@H]([C@@H]1OC(=O)CCCCCCC)[C@@](C)(OC(C)=O)C[C@H](OC(=O)CCC)[C@@]1(O)[C@H]2OC(=O)[C@@]1(C)O` [thapsigargin], the “CRKL secretion / release” value in test [3] is “do not appear to inhibit”.

Values taken from US20110189095A1, “CRKL TARGETING PEPTIDES” (The Board of Regents, of the University of Texas System, priority 2008, published 2011).
